The record followed here is article PMC9405847, “Design, Synthesis and Pharmacological Evaluation of Novel Conformationally Restricted N-arylpiperazine Derivatives Characterized as D2/D3 Receptor Ligands, Candidates for the Treatment of Neurodegenerative Diseases” (Biomolecules, 2022).

The target in data set [1] is T1, D2R (Rattus norvegicus, UniProt P61169).
T1 construct: from tissue; host or cells: striatum of adult male Wistar rats
Description: Competition binding of [3H]-YM-09151-2 to D2-like receptors in rat striatal membranes. The protocol:
Finally, to evaluate the selectivity of the substances, classic binding to D2-like receptors was performed using rat striatal membranes. Adult male Wistar rats (2.5–3 months) were killed by decapitation, their brains were immediately removed on ice and the striatum was dissected and stored in liquid nitrogen until use. This procedure was approved by the Institutional Ethical Committee for Animal Care from the Federal University of Rio de Janeiro (CEUA no. 052/19; 30 April 2019). The striatum was homogenized in a motorized Potter-type apparatus with a Teflon piston at 4 °C at 20 volumes per gram of tissue in ice-cold 50 mM Tris-HCl buffer (pH 7.4) containing 8 mM MgCl2 and 5 mM ethylenediaminetetraacetic acid (EDTA). The resulting suspension was ultracentrifuged at 48,000× g at 4 °C for 20 min. The pellet was resuspended in 20 volumes of the same buffer and incubated at 37 °C for 10 min to remove endogenous neurotransmitters. This suspension was cooled and ultracentrifuged at 48,000× g for 20 min at 4 °C [46]. The final pellet was resuspended and stored in liquid nitrogen until use.
In a medium containing the antagonist radioligand [^3H]-YM-09151-2 0.1 nM, 120 mM NaCl, 5 mM KCl, 5 mM MgCl2, 1.5 mM CaCl2, 1 mM EDTA and 50 mM Tris-HCl (pH 7.2 a 25 °C), 50 µg of […] striatum membrane was incubated in the dark (sodium light) for 60 min at 37 °C. Nonspecific binding was estimated using sulpiride (30 µM).

The target of data set [2] is human D3 dopaminergic receptor (D3R) (Homo sapiens, UniProt P35462). Description: Competition binding of [3H]-spiperone and GTP-shift (functional binding) in membranes of recombinant Chem-1 cells. Particulars: for IC50: D3R, [3H]-spiperone 0.5 nM, 95% confidence interval in parentheses; for Na+-Shift (II/I) D3R: IC50 in NaCl + GTP (II) divided by IC50 in MgCl2 + CaCl2 (I); for Intrinsic Efficacy at D3R: classified from the Na+-shift (GTP-shift assay).
Chain of human D3 dopaminergic receptor (D3R) (P35462 whole entry): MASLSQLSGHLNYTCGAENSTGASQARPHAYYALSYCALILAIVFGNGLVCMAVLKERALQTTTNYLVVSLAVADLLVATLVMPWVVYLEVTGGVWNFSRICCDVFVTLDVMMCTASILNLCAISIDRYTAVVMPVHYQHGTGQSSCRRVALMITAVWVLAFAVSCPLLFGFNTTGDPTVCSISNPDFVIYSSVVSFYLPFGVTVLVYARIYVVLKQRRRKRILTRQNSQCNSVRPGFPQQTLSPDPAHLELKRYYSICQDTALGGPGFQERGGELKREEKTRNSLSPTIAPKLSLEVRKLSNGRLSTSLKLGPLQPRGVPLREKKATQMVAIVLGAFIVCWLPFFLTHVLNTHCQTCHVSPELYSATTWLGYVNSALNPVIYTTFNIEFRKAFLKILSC

Where [3] appears, read: IC50 (MgCl2 + CaCl2), medium I: 5 mM MgCl2 and 1.5 mM CaCl2.
Where [4] appears, read: IC50 (NaCl + GTP), medium II: 154 mM NaCl and 1 mM GTP.

In general, Ki refers to a dissociation constant, usually derived from enzyme kinetics or from competition with a known ligand. The low end stands for higher affinity, the high end for lower affinity. For orientation: melting point means the temperature of the solid-liquid transition. In general, IC50 refers to the midpoint of a concentration-inhibition curve.

T1 sequence (P61169 whole entry): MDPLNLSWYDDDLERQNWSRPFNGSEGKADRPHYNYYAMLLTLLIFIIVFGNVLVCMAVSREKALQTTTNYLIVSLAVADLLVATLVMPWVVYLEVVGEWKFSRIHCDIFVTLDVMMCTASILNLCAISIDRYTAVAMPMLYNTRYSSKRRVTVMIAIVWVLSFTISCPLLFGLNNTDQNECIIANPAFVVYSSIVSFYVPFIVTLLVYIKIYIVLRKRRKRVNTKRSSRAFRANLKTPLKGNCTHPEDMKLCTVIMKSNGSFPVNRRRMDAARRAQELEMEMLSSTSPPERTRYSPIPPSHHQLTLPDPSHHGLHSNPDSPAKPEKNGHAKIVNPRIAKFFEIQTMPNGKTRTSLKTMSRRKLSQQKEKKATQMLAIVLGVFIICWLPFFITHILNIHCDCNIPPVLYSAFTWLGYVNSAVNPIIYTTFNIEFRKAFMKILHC

As for `Cc1cc2c(cc1S(=O)(=O)Nc1ccc(CN3CCN(c4ccccc4)CC3)cc1)OCO2` [Compound 5a, 6-Methyl-N-(4-((4-phenylpiperazin-1-yl)methyl)phenyl) Benzo [d] [1,3] Dioxole-5-sulfonamide], the melting point was 154 to 156 °C. This molecule came in with a Ki in data set [1] of 440 nM. In data set [2] (setting [3]), the IC50 is 1100 nM. The IC50 in data set [2] (setting [4]) is 1200 nM. In data set [2], the “Na+-Shift (II/I) D3R” value worked out at 1.1 and the “Intrinsic Efficacy at D3R” value is listed as “antagonist”.
As to `COc1ccccc1N1CCN(Cc2ccc(NS(=O)(=O)c3cc4c(cc3C)OCO4)cc2)CC1` [Compound 5b, N-(4-((4-(2-Methoxyphenyl)piperazin-1-yl)methyl)phenyl)-6-methylbenzo [d] [1,3] Dioxole-5-sulfonamide], the melting point was 183 to 185 °C. Moreover, affinity in data set [1] was put at a Ki of 80 nM. Also, the IC50 in data set [2] (setting [3]) was found to be 760 nM. Further, in data set [2] (setting [4]), the IC50 was 290 nM. In data set [2], the “Na+-Shift (II/I) D3R” value was 0.4 and the “Intrinsic Efficacy at D3R” value is given as “weak inverse agonist”.
`Cc1cc2c(cc1S(=O)(=O)Nc1ccc(CN3CCN(c4cccc(Cl)c4Cl)CC3)cc1)OCO2` [Compound 5c, N-(4-((4-(2,3-Dichlorophenyl)piperazin-1-yl)methyl)phenyl)-6-methylbenzo [d] [1,3] Dioxole-5-sulfonamide] had a melting point of 192 to 194 °C. The affinity in data set [1], expressed as Ki, was 400 nM. Also, the IC50 in data set [2] (setting [3]) was 750 nM. In addition, the IC50 in data set [2] (setting [4]) stood at 780 nM. In data set [2], the “Na+-Shift (II/I) D3R” value is given as 1 and the “Intrinsic Efficacy at D3R” value is recorded as “antagonist”.
Molecule `O=S(=O)(Nc1ccc(CN2CCN(c3ccccc3)CC2)cc1)c1ccc2c(c1)OCO2` [Compound 5d, N-(4-((4-Phenylpiperazin-1-yl) Methyl) Phenyl) Benzo [d] [1,3] Dioxole-5-Sulfonamide] came in with a melting point of 178 to 180 °C. For the same molecule, in data set [1], the affinity, expressed as Ki, was 820 nM. The IC50 in data set [2] (setting [3]) came out at 420 nM. For the same molecule, in data set [2] (setting [4]), the half-maximal inhibitory concentration (IC50) turned out to be 990 nM. Also, in data set [2], the “Na+-Shift (II/I) D3R” value was 2.4 and the “Intrinsic Efficacy at D3R” value is recorded as “partial agonist”.
Molecule `COc1ccccc1N1CCN(Cc2ccc(NS(=O)(=O)c3ccc4c(c3)OCO4)cc2)CC1` [Compound 5e, N-(4-((4-(2-Methoxyphenyl)piperazin-1-yl)methyl)phenyl) Benzo [d] [1,3] Dioxole-5-sulfonamide] displayed a melting point of 149 to 151 °C. For the same molecule, in data set [1], the affinity, expressed as Ki, was 100 nM. Moreover, the IC50 in data set [2] (setting [3]) is 230 nM. In data set [2] (setting [4]), the IC50 worked out at 200 nM. In data set [2], the “Na+-Shift (II/I) D3R” value was found to be 0.9 and the “Intrinsic Efficacy at D3R” value is listed as “antagonist”.
For `O=S(=O)(Nc1ccc(CN2CCN(c3cccc(Cl)c3Cl)CC2)cc1)c1ccc2c(c1)OCO2` [Compound 5f, N-(4-((4-(2,3-Dichlorophenyl)piperazin-1-yl)methyl)phenyl) Benzo [d] [1,3] Dioxole-5-sulfonamide], the melting point lay in the range of 163 to 166 °C. The molecule also gave a Ki in data set [1] of 200 nM. Besides, the IC50 in data set [2] (setting [3]) came out at 110 nM. For the same molecule, the IC50 in data set [2] (setting [4]) turned out to be 200 nM. Moreover, in data set [2], the “Na+-Shift (II/I) D3R” value amounted to 1.8 and the “Intrinsic Efficacy at D3R” value was “partial agonist”.
